Results taken from ChEMBL document CHEMBL1201862, “PubChem BioAssay data set” (2004).
Active and inactive are the calls of the source.

What was measured:
Procathepsin L = Procathepsin L (Homo sapiens, UniProt P07711); assay: cathepsin L inhibitors, dose response, counter-screen for M1/M17 aminopeptidase inhibitor project, biochemical, QFRET, 1536-well (AID 2214)
Leucine aminopeptidase = biological target: T1, Leucine aminopeptidase (Plasmodium falciparum 3D7, UniProt Q8IL11); assay: P. falciparum M17LAP inhibitors, primary screen, biochemical, fluorogenic H-Leu-NHMec substrate, 1536-well (AID 1619); type: functional
T1 sequence (Q8IL11 whole entry): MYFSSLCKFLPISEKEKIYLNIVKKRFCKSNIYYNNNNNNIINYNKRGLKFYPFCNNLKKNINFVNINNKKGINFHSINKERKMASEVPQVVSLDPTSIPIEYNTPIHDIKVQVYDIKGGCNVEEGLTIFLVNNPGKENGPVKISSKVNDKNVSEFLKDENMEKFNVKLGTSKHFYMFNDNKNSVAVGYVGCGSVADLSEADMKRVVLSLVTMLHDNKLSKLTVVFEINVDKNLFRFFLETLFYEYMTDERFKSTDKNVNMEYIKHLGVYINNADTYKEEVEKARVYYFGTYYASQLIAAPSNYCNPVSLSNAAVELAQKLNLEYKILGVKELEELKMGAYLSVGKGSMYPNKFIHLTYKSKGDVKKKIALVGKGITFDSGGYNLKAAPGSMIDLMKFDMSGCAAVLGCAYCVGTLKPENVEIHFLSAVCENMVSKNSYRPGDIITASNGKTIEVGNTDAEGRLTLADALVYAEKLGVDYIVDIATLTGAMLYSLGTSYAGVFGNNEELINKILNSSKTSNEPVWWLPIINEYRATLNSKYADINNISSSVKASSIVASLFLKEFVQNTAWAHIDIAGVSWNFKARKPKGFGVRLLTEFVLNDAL

Aspartyl aminopeptidase = biological target: T2, Aspartyl aminopeptidase (Plasmodium falciparum 3D7, UniProt Q8I2J3); assay: Counterscreen for inhibitors of M1 and M17 aminopeptidases: QFRET-based biochemical high throughput dose response assay for inhibitors of the Plasmodium falciparum M18 Aspartyl Aminopeptidase (PFM18AAP). [Related PubChem assays: 1619 (Screening assay (M17LAP inhibitors).), 1445 (Screening assay (M1AAP inhibitors).)]
T2 sequence (Q8I2J3 whole entry): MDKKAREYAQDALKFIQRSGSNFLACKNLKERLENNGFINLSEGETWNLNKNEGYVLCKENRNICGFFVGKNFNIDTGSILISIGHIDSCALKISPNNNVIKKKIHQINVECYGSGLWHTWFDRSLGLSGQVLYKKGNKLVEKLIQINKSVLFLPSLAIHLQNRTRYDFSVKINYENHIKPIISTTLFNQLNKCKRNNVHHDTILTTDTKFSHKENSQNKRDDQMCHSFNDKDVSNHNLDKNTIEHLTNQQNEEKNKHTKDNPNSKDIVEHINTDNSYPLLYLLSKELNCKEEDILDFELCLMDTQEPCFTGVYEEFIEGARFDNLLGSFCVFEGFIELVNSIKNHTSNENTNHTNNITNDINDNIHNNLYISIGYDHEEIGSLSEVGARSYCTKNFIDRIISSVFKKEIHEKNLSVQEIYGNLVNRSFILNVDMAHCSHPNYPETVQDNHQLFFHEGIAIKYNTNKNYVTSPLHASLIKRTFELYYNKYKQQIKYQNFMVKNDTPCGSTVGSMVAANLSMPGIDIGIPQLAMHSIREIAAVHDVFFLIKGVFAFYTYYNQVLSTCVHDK

[1] = HEp-2 cell cytotoxicity, dose response, cytotoxicity control for RSV inhibitor project, HTS (AID 2410); type: functional; details: human respiratory syncytial virus
Vero [2] = assay: host cell cytotoxicity of antiviral hits, dose response, cytotoxicity control for West Nile virus antiviral project, secondary assay (AID 1650); type: functional; details: Chlorocebus sabaeus
Aminopeptidase N = biological target: T3, Aminopeptidase N (Plasmodium falciparum FcB1/Columbia, UniProt O96935); assay: P. falciparum M1AAP inhibitors, biochemical, fluorogenic H-Leu-NHMec substrate, 1536-well (AID 1445); design: species or system Plasmodium falciparum 3D7, 3D7
T3 sequence (O96935 whole entry): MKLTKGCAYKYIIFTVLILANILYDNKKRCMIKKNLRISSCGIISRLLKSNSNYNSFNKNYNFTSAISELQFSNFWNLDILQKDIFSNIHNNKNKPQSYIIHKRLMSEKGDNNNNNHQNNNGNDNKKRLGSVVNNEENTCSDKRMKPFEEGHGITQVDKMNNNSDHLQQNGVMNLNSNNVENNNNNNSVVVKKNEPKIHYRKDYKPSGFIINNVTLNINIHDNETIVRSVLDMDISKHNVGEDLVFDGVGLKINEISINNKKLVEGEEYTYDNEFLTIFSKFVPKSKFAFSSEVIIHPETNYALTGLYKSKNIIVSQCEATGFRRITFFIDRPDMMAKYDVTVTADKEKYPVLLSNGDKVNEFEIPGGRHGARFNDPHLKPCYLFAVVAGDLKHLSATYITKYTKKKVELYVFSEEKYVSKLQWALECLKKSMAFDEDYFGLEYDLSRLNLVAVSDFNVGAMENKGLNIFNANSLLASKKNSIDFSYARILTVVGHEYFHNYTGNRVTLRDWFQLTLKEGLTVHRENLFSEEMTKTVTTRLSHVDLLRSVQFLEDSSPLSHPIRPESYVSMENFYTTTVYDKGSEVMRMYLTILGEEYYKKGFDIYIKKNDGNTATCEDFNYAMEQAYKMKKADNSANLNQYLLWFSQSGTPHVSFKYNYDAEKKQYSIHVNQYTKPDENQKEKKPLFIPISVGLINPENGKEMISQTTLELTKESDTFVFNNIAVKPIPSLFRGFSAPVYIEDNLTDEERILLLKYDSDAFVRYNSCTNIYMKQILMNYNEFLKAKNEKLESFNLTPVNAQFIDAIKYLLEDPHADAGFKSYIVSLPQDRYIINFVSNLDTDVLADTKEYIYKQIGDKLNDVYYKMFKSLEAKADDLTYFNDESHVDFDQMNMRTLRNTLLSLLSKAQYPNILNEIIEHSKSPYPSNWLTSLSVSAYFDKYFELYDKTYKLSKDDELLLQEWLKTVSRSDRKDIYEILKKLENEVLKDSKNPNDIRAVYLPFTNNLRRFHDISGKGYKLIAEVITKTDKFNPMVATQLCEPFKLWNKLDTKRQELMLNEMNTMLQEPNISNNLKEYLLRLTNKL

[3] = biological target: T4, High affinity choline transporter 1 (Homo sapiens, UniProt Q9GZV3); assay: CHT inhibitors, dose response, cell-based, 5-point CRC, membrane potential dye (AID 504840); type: functional
T4 sequence (Q9GZV3 whole entry): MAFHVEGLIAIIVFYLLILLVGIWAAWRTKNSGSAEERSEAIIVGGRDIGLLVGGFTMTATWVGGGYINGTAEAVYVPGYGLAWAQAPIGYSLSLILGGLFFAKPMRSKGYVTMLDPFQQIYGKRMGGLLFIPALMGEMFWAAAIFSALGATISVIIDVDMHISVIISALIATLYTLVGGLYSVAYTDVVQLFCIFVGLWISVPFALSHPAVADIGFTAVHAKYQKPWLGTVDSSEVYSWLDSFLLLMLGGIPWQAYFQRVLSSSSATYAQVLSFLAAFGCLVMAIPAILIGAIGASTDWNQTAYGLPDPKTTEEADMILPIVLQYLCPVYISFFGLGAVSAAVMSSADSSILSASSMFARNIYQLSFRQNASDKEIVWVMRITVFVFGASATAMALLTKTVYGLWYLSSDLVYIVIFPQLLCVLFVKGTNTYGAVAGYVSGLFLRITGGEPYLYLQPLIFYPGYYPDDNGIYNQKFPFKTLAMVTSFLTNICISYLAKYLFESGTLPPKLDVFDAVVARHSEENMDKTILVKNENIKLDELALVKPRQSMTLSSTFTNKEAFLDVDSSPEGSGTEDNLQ

Genome polyprotein = Genome polyprotein (dengue virus type 2, UniProt P29990); assay: Dengue-2 NS5 methyltransferase inhibitors, primary screen, biochemical, confirmation dose response (AID 588689); type: functional
Protein RecA = biological target: T5, Protein RecA (Mycobacterium tuberculosis, UniProt P9WHJ3); assay: Fluorescence Cell-Free Homogeneous Dose Retest to Identify Inhibitors of RecA-Intein Splicing Activity. [Related pubchem assays (depositor defined):AID2097, AID2223, AID489010, AID492950]; type: functional
T5 sequence (P9WHJ3 whole entry): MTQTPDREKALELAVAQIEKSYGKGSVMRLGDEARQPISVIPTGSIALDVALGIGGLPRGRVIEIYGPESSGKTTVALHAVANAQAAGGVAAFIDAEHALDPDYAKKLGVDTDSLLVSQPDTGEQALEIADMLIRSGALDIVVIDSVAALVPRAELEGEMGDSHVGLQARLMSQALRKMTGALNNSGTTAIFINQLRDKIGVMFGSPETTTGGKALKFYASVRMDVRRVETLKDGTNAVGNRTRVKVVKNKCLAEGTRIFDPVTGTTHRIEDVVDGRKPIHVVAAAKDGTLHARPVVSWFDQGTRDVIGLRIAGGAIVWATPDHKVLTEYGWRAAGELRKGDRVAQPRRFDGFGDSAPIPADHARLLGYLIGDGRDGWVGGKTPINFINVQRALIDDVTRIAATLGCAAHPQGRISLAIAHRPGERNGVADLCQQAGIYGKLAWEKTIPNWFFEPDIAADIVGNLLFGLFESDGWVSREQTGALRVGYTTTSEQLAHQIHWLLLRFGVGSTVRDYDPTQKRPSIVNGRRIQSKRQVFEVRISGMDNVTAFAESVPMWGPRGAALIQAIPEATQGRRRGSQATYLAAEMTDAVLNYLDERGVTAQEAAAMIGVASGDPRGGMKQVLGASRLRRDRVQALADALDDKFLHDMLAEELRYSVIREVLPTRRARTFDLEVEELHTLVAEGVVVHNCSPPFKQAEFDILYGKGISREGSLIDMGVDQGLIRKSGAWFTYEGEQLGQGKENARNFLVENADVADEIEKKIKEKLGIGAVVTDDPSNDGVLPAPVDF

[4] = control 3'UTR Renilla luciferase suppression, dose response, counter-screen for Shn3 inhibitor project, cell-based, Clone20-Shn3RL, cherry-picked (AID 624133); type: functional
[5] = Shn3 3'UTR reporter inhibitors, dose response, cell-based, Clone20 osteoblasts, firefly luciferase, cherry-picked (AID 624132); type: functional;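 note: firefly luciferase luminescence from reporter carrying the Shn3 3'UTR in osteoblasts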
Vero [6] = assay: cells; type: functional; details: Chlorocebus sabaeus
[7] = HepG2 cell cytotoxicity, dose response, cytotoxicity control for Shn3 inhibitor project, CellTiter-Glo, cherry-picked (AID 624134); type: functional, cell-based
[8] = biological target: T6, Replicative DNA helicase DnaB (Mycobacterium tuberculosis, UniProt P9WMR3); assay: DnaB intein splicing inhibitors, dose response, biochemical, cell-free fluorescence (AID 449749); type: functional
T6 sequence (P9WMR3 whole entry): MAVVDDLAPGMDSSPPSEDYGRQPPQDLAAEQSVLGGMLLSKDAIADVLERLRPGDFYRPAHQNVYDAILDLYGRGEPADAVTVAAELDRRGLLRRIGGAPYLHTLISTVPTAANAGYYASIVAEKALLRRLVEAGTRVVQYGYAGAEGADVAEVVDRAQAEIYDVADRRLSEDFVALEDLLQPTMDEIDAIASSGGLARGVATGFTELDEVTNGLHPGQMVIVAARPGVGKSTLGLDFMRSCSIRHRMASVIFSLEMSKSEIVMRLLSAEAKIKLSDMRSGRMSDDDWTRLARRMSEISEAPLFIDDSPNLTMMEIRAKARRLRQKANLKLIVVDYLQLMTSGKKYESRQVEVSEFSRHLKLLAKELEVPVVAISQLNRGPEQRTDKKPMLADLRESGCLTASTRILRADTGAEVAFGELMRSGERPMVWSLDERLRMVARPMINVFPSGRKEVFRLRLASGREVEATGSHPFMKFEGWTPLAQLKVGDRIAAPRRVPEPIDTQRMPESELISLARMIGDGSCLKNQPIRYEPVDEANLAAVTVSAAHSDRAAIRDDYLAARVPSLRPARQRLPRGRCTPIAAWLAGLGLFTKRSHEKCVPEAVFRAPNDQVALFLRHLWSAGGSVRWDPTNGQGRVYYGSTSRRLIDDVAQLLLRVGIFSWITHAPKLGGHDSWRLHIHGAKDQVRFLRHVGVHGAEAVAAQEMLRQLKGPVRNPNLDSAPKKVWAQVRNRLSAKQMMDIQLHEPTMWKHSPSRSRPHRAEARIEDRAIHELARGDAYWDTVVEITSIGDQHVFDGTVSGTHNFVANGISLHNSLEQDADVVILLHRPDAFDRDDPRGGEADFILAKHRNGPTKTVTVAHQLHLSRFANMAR

Sequence of Procathepsin L (P07711 whole entry): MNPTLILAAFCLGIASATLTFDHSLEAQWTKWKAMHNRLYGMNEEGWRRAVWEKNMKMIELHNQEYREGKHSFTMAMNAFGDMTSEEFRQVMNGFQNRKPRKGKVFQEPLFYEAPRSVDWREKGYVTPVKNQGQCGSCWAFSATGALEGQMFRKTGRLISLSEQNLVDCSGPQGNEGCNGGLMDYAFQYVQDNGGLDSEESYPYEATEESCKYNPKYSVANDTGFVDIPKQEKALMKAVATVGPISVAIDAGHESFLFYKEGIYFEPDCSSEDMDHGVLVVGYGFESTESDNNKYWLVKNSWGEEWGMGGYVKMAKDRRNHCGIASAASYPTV
Sequence of Genome polyprotein (P29990 2492-3391 limits assumed): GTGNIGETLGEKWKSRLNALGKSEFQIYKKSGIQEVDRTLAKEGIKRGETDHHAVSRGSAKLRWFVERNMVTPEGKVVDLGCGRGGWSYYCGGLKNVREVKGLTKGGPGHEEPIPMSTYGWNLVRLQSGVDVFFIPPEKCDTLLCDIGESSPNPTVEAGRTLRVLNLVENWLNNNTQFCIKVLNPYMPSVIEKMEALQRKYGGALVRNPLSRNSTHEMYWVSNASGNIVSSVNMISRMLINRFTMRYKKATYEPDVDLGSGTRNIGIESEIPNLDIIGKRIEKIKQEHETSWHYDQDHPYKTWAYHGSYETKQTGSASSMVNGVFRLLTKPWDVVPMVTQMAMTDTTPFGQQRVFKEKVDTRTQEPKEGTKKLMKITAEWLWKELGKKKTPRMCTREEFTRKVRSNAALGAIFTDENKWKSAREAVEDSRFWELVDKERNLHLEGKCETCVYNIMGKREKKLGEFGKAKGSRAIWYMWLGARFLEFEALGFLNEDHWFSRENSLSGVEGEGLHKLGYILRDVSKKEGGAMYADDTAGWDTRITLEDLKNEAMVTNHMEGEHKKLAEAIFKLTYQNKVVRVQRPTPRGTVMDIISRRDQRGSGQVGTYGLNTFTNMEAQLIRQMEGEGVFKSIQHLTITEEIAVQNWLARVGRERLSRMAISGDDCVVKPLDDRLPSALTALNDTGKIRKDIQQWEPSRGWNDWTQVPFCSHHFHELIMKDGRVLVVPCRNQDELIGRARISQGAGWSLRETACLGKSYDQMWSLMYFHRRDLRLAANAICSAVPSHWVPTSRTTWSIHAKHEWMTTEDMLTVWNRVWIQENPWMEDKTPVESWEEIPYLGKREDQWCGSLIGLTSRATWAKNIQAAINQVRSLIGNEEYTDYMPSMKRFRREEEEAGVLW

CCc1ccc(NC(=O)C2CC=CCC2C(=O)O)cc1 (centres undefined)
IC50 (Procathepsin L): > 59.6 µM (not active) | IC50 (Leucine aminopeptidase): 3.48 µM (active) | IC50 (Aspartyl aminopeptidase): > 73.5 µM (not active)

Cc1cc(C)c(-n2c(C)cc(/C=C3/NC(=O)NC3=O)c2C)c(C)c1
CC50 [1]: 11.2 µM (active) | IC50 (cells): 2.83 µM (active)

COc1ccc2nc(Nc3nc(O)cc(CSc4nnnn4-c4ccccc4)n3)nc(C)c2c1
CC50 (Vero [2]): > 100 µM (active)

COc1ccccc1-c1nc2ccccc2c(=O)n1NC(=O)c1cccs1
IC50 (Procathepsin L): > 59.6 µM (not active) | IC50 (Aminopeptidase N): 15.8 µM (active) | IC50 (Aspartyl aminopeptidase): > 73.5 µM (not active)

COCCN(C(=O)CSc1nnc(-c2ccc(C)c(C)c2)o1)c1c(N)n(CC(C)C)c(=O)[nH]c1=O
IC50 (cells): 13.3 µM (active) | IC50 [3]: 14.8 µM (active)

Cc1cccc(-c2cc3nc(C)cc(NCCCN(C)C)n3n2)c1
CC50 (Vero [2]): 64.2 µM (active)

CCOC(=O)c1c(NC(=O)C2C3C=CC(C3)C2C(=O)O)sc2c1CCC(CC)C2 (centres undefined)
IC50 (Procathepsin L): > 59.6 µM (not active) | IC50 (Genome polyprotein): 42.4 µM (active) | IC50 (Leucine aminopeptidase): 7.67 µM (active) | IC50 (Aspartyl aminopeptidase): > 73.5 µM (not active) | IC50 [3]: 1.91 µM (active)

CCN(CC)CCNC(=O)CSc1c2c(nc3cc(Cl)ccc13)CCCC2
EC50 (Protein RecA): 11.8 µM (active) | AC50 [4]: 25.5 µM (active) | AC50 [5]: 14.9 µM (active) | CC50 (Vero [2]): 18.8 µM (active) | CC50 (Vero [6]): > 25 µM (active) | AC50 [7]: > 70 µM (inactive) | AC50 [8]: 241 µM (active)
